Data as given in patent US8524740B2, “Synthesis and anticancer activity of aryl and heteroaryl-quinolin derivatives” (Tairx, Inc., priority 2010, dated 2013).
pIC50: −log10 of the molar value.

Experiments:
HL-60 = test: MTT assay, HL-60 cells; assay type: cell-based; conditions: Homo sapiens, 48 hrs
Procedure: (§1) MTT (3-(4,5-Dimethylthiazol-2-yl)-2,5-diphenyltetrazolium bromide) assays.^21,22 HL-60, HCT-116, Hep 3B, H460, Detroit 551 and HT29/FuR cells were treated with tested compounds for the indicated periods. After treatment, cells were washed once with PBS and incubated with MTT (Sigma, St. Louis, Mo., USA) for 2 h. The formazan precipitate was dissolved in 150 μL of DMSO, and the absorbance was measured with an ELISA reader at 570 nm.
(§2) HL-60, Hep 3B, H460, MES-SA, MES-SAID x5 and Detroit 551 cells were treated with vehicle or test compounds for 48 h. The cell growth rate was determined by MTT (3-(4,5-dimethyl-thiazol-2-yl)-2,5-diphenyltetrazoliun bromide) reduction assay.
as §1, with “assays.” for “assays.^21,22”, “HCT-116, A549,” for “HCT-116,”, “KB, Kb-VIN” for “H460, Detroit 551”, “DU145” for “HT29/FuR”
as §1, with “assays.” for “assays.^21,22”, “HL-60,” for “HL-60, HCT-116,”, “H460, A498, Colo205 and” for “H460,”, “551” for “551 and HT29/FuR”

Hep3B = test: MTT assay, Hep 3B cells; assay type: cell-based; conditions: Homo sapiens, 48 hrs
Procedure: as §1, §2
as §1, with “assays.” for “assays.^21,22”, “HCT-116, A549,” for “HCT-116,”, “KB, Kb-VIN” for “H460, Detroit 551”, “DU145” for “HT29/FuR”
as §1, with “assays.” for “assays.^21,22”, “HL-60,” for “HL-60, HCT-116,”, “H460, A498, Colo205 and” for “H460,”, “551” for “551 and HT29/FuR”

H460 = test: MTT assay, H460 cells; assay type: cell-based; conditions: Homo sapiens, NCI-H460, 48 hrs
Procedure: as §1, §2
as §1, with “assays.” for “assays.^21,22”, “HL-60,” for “HL-60, HCT-116,”, “H460, A498, Colo205 and” for “H460,”, “551” for “551 and HT29/FuR”

Detroit 551 = test: MTT assay, Detroit 551 normal human cells; assay type: cell-based; conditions: Homo sapiens, Detroit 551, 48 hrs
Procedure: as §1, §2
as §1, with “assays.” for “assays.^21,22”, “HL-60,” for “HL-60, HCT-116,”, “H460, A498, Colo205 and” for “H460,”, “551” for “551 and HT29/FuR”

MES-SA = test: MTT assay, MES-SA cells; assay type: cell-based; conditions: Homo sapiens, 48 hrs
Procedure: as §2

MES-SA/Dx5 = test: MTT assay, MES-SA/Dx5 cells; assay type: cell-based, human; conditions: for pIC50: Homo sapiens, MES-SA/Dx5, 48 hrs; for Ratio Of SA/Dx5: IC50 MES-SA/Dx5 over IC50 MES-SA
Procedure: as §2

[1] = system: Hep-3B human hepatocellular carcinoma xenograft; test: In vivo antitumor activity assay, Hep3B xenograft nude mice; parameters: species or system Balb/c Nude mice; conditions: for Hep3B tumor growth suppression compared with doxorubicin: 7.5 mg/kg/day p.o., doxorubicin 10 mg/kg p.o.; for antitumor activity by i.v. route compared with p.o. route: i.v., 7.5, 15, 30 mg/kg qd; for inhibition of Hep3B tumor growth (dose and time dependence): p.o., 7.5, 15, 30 mg/kg/day
Procedure: The Hep-3B tumor cell line was purchased from American Type Culture Collection (ATCC™HB-8064, human hepatocellular carcinoma cells). The culture medium contained DMEM, 90%; Fetal Bovine Serum, 10% and 1% penicillin-streptomycin. The tumor cells were incubated in an atmosphere containing 5% CO2 at 37° C.
Balb/c Nude mice used in this study were male, 4-6 weeks age, weighing 18-20 g and provided by National Animal Center. All animals were housed in Individually Ventilated Cages Racks (IVC Racks, 36 Mini Isolator system) under Specific Pathogen-Free (SPF) condition throughout the experiment. Each cage (in cm, 26.7 length×20.7 width×14.0 height) was sterilized with autoclave and contained 8 mice, and then the animals were maintained in a hygienic environment under controlled temperature (20-24° C.) and humidity (40%-70%) with 12 hour light/dark cycle. The animals were given free access to sterilized lab chow and sterilized distilled water ad libilum. All aspects of this work, i.e., housing, experimentation and disposal of animals were performed in general accordance with the Guide for the Care and Use of Laboratory Animals (National Academy Press, Washington, D.C., 1996).
(§3) In the xenotraft tumor model of human hepatocellular carcinoma cell lines (Hep-3B, ATCC HB-8064) in male Balb/c Nude mice, the compounds 49 at doses at 7.5, 15 and 30 mg/kg (i.v. or p.o., bid) was administered five days per week for four consecutive weeks by p.o, or i.v. and ceased at Day 28. The compounds 52 at doses at 7.5, 15 and 30 mg/kg (i.v. or p.o., qd) was administered five days per week for four consecutive weeks and ceased at Day 28. The tumor size, body weight was monitored and recorded for 28 days. Human hepatocellular carcinoma cells (HEP-3B ATCC HB-8064) with 2×10^6 cells in 0.1 ml were injected subcutaneously into the right flank of the mice. When the tumor growth reached >100 mm^3 in volume (assumed as day 0), the tumor-bearing animals were assigned into several groups (8 animals in each group) for study.
(§4) The body weight and tumor size were measured and recorded every 7 days during the experimental periods of 28 days. Tumor volume (mm^3) was estimated according to the formula of length×[…]×0.5 in mm^3. Tumor growth inhibition was calculated as T/C (treatment/control) by the following formula: T/C=(Tn−T0)/(Cn−C0)×100% (T0: Tumor volume of treated group in Day 0; Tn: Tumor volume of treated group in Day n; C0: Tumor volume of control group in Day 0; Cn: Tumor volume of control group in Day n).
The Hep-3B tumor cell line was purchased from American Type Culture Collection (ATCC HB-8064, human hepatocellular carcinoma cells). A culture medium of 90% DMEM, 10% Fetal Bovine Serum, supplemented with 1% penicillin-streptomycin, was used. The tumor cells were incubated in an atmosphere containing 5% CO2 at 37° C.
Balb/c Nude mice used in this stud were male, 4-6 weeks age, weighing 18-20 g and provided by National Animal Center. All animals were housed in individually ventilated cages racks (IVC Racks, 36 Mini Isolator system) under specific pathogen-free (SPF) conditions throughout the experiment. Each cage (in cm, 26.7 length×20.7 width×14.0 height) was sterilized with autoclave and contained eight mice. The animals were maintained in a hygienic environment under controlled temperature (20-24° C.) and humidity (40% -70%) with a 12 hour light/dark cycle. The animals were given free access to sterilized lab chow and sterilized distilled water ad libitum. All aspects of this work, i.e., housing, experimentation and disposal of animals, were performed in general accordance with the Guide for the Care and Use of Laboratory Animals (National Academy Press, Washington, D.C., 1996). […]

[2] = Body weight monitoring in Hep3B xenograft nude mice; assay type: in vivo, Balb/c Nude mice; conditions: during the course of antitumor evaluation (28 days)
Procedure: as §3, §4
In the xenograft tumor model of human hepatocellular carcinoma cell lines (Hep-3B, ATCC HB-8064) in male Balb/c Nude mice, compound 147 prepared in 9% (w/v) NaHCO3 solution at doses of 7.5, 15 and 30 mg/kg -i.v.or p.o., qd) was administered five days per week for four consecutive weeks and ceased at Day 28. The tumor size and body weight were monitored and recorded for 28 days. Human hepatocellular carcinoma cells (HEP-3,ATCC HB-8064) with 2 ×10^6 cells in 0.1 mL were injected subcutaneously into the right flank of the mice. […]
The body weight and tumor size were measured and recorded every seven days during the experiment periods of 28 days. […]

Row | SMILES | melting point [°C] | body weight changes [2] | pIC50 (HL-60; Table 3, B-2 series) | pIC50 (Hep3B; Table 3, B-2 series) | pIC50 (H460; Table 3, B-2 series) | pIC50 (Detroit 551; Table 3, B-2 series) | pIC50 (MES-SA; Table 3, B-2 series) | pIC50 (MES-SA/Dx5; Table 3, B-2 series) | Ratio Of SA/Dx5 (MES-SA/Dx5; Table 3, B-2 series) | other results
1 | COc1cccc(C2=Nc3ccc(N4CCOCC4)cc3C(=O)C2)c1OC [Compound 126, 2-(2,3-Dimethoxyphenyl)-6-morpholinoquinolin-4-one] | 235 to 236 | – | – | – | – | – | – | – | – | pIC50 (HL-60; Table 2, B-1 series): 5.28; pIC50 (Hep3B; Table 2, B-1 series): 5.01; pIC50 (H460; Table 2, B-1 series): 4.76; pIC50 (Detroit 551; Table 2, B-1 series): < 4.30; pIC50 (MES-SA; Table 2, B-1 series): 5.30; pIC50 (MES-SA/Dx5; Table 2, B-1 series): 4.76; Ratio Of SA/Dx5 (MES-SA/Dx5; Table 2, B-1 series): 3.49
2 | COc1ccc2nc(-c3cccc(F)c3)cc(OP(=O)(O)O)c2c1OP(=O)(O)O [Compound 49, 2-(3-Fluorophenyl)-6-methoxyquinoline-4,5-diyl bis(dihydrogen phosphate)] | – | no significant body weight changes | – | – | – | – | – | – | – | antitumor activity compared with doxorubicin ([1]; 7.5 mg/kg i.v. or p.o., bid, doxorubicin 5 mg/kg i.v. qd, 10 mg/kg p.o. qd): exceeded that of doxorubicin; antitumor activity (dose and time dependence) ([1]; 7.5, 15 and 30 mg/kg, i.v. or p.o., bid, five days per week for four weeks): dose- and time-dependent manner
3 | O=C1CC(c2ccccc2O)=Nc2ccc(N3CCCC3)cc21 [Compound 135, 2-(2-Hydroxyphenyl)-6-pyrrolidinoquinolin-4-one] | 304 to 306 | – | 6.44 | 5.88 | 6.07 | 4.60 | 6.07 | 6.00 | 1.18 | –
4 | COc1ccccc1C1=Nc2ccc(N3CCCC3)cc2C(=O)C1 [Compound 131, 2-(2-Methoxyphenyl)-6-pyrrolidinoquinolin-4-one] | 312 to 313 | – | 6.89 | 6.52 | 6.24 | < 5.00 | 6.35 | 6.35 | 1.01 | –
5 | COc1ccc(OC)c(C2=Nc3ccc(N4CCCC4)cc3C(=O)C2)c1 [Compound 129, 2-(2,5-Dimethoxyphenyl)-6-pyrrolidinoquinolin-4-one] | 272 to 274 | – | 8.22 | 6.66 | 6.72 | 5.30 | 6.64 | 6.67 | 0.94 | –
6 | CN(C)c1ccc2c(c1)C(=O)CC(c1cccc(O)c1)=N2 [Compound 139, 2-(3-Hydroxyphenyl)-6-dimethylaminoquinolin-4-one] | 342 to 344 | – | – | – | – | – | – | – | – | pIC50 (HL-60; Table 4, B-3 series): 7.22; pIC50 (Hep3B; Table 4, B-3 series): 6.00; pIC50 (H460; Table 4, B-3 series): 5.21; pIC50 (Detroit 551; Table 4, B-3 series): 5.00; pIC50 (MES-SA; Table 4, B-3 series): 6.03; pIC50 (MES-SA/Dx5; Table 4, B-3 series): 6.07; Ratio Of SA/Dx5 (MES-SA/Dx5; Table 4, B-3 series): 0.92
7 | O=c1cc(-c2cccc(OP(=O)(O)O)c2)[nH]c2ccc(N3CCCC3)cc12 [Compound 147, 3-(4-Oxo-6-(pyrrolidin-1-yl)-1,4-dihydroquinolin-2-yl)phenyl dihydrogen phosphate] | – | no significant body weight changes | – | – | – | – | – | – | – | Hep3B tumor growth suppression compared with doxorubicin [1]: exceed that of 10 mg/kg doxorubicin; weight of Hep3B tumor relative to control ([1]; 30 mg/kg p.o., % of that of the control): 26.3%; antitumor activity by i.v. route compared with p.o. route [1]: slightly greater activity; inhibition of Hep3B tumor growth (dose and time dependence) [1]: dose- and time-dependent inhibition
8 | COc1ccc2[nH]c(-c3cccc(F)c3)cc(=O)c2c1OP(=O)(O)O [Compound 52, 2-(3-Fluorophenyl)-6-methoxy-4-oxo-1,4-dihydroquinolin-5-yl dihydrogen phosphate] | – | no significant body weight changes | – | – | – | – | – | – | – | Hep3B tumor growth suppression compared with doxorubicin [1]: Significant tumor growth suppression; tumor suppression ([1]; 30 mg/kg/day oral dosing): Near complete tumor suppression; antitumor activity by i.v. route compared with p.o. route [1]: slight better antitumor activity; inhibition of Hep3B tumor growth (dose and time dependence) [1]: dose- and time-dependent inhibition
9 | O=C1CC(c2cccc(O)c2)=Nc2ccc(N3CCCC3)cc21 [Compound 138, 2-(3-Hydroxyphenyl)-6-pyrrolidinoquinolin-4-one] | 364 to 367 | – | 8.05 | 6.55 | 6.40 | 5.86 | 6.13 | 6.49 | 0.23 | –
